60 compounds from PubChem BioAssay AID588764 (Broad Institute, 2011) can be followed below.

Inconclusive results are not listed. The source made the active and inactive calls. The rule behind the calls is not given here.

One assay deals with Histone acetyltransferase RTT109 (Candida albicans (strain SC5314 / ATCC MYA-2876)) (UniProt Q5AAJ8). Put plainly: Rtt109/Vps75 acetyltransferase inhibitor potency, dose response, biochemical, cherry-picked hits, plate reader (AID 588764). The conditions noted are these: Rtt109/Vps75 HAT activity.
Chain of Histone acetyltransferase RTT109 (Candida albicans (strain SC5314 / ATCC MYA-2876)) (Q5AAJ8 whole entry, looked up): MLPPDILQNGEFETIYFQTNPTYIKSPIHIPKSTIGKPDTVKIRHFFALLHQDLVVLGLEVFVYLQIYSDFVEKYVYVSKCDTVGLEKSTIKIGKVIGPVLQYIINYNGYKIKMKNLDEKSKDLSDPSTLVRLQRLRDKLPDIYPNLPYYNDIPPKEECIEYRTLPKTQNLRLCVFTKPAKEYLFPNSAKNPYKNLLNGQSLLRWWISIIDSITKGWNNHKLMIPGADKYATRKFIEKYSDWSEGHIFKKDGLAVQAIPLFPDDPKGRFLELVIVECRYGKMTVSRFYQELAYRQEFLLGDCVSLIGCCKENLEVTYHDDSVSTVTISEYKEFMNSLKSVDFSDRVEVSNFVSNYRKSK
In general, AC50 refers to the concentration giving half of the maximal activity seen. For `COc1ccc(OC)c2sc(N(CCCN(C)C)C(=O)CCS(=O)(=O)c3ccccc3)nc12`, the AC50 is 20.1 µM.
Same read-out and setting: under `CS(=O)(=O)c1ncc(Cl)c(C(=O)Nc2ccc(N3CCOCC3)cc2)n1` stands 8.27 µM; under `Oc1cc(O)c(CN2CCOCC2)cc1CN1CCOCC1`, 19.5 µM.
On the same count and under the same terms, the value for `O=C(Nc1ccccc1Cl)/C(Cl)=C(\Cl)S(=O)c1ccccc1` (stereo not given) was 8.62 µM; that for `COC(=O)/C=C\C(=O)Nc1cccc([N+](=O)[O-])c1` was 5.62 µM.
Same read-out and setting: under `CC(=O)Nc1ccc(NC(=O)c2nc(S(=O)(=O)Cc3ccccc3)ncc2Cl)cc1` stands 6.3 µM; under `Oc1c(Cl)cc(Cl)c(Cl)c1Cc1c(O)c(Cl)cc(Cl)c1Cl`, 5.48 µM.
On to `CCCC1(c2ccccc2)NC(=O)N(CC(=O)N(C)Cc2c(F)cccc2Cl)C1=O` (stereo not given), for which the concentration at half-maximal activity (AC50) was 2.79 µM.
As to `CN1CCc2cccc3c2[C@H]1Cc1ccc(O)c(O)c1-3`, the concentration at half-maximal activity (AC50) was 18.4 µM.
Same read-out and setting: the value for `Cc1ccc(NC(=O)Cn2sc3nc(C)cc(C)c3c2=O)c(Cl)c1` was 0.831 µM.
Still for that read-out and setting: under `Oc1cc2c(cc1O)[C@H]1c3ccc(O)c(O)c3OC[C@@]1(O)C2` stands 7.81 µM; under `CCOC(=O)/C=C/C(=O)Nc1cccc([N+](=O)[O-])c1`, 5.91 µM.
On the same count and under the same terms, under `Cc1cc(C)c2c(=O)n(CC(=O)Nc3cccc(Cl)c3C)sc2n1` stands 1.98 µM.

The same assay, now with this note: Rtt109/Vps75 HAT activity, at 19.5 µM (top of the series).
For the compound `CCc1sc(C(=O)Nc2cccc(C(C)=O)c2)cc1C`, the “activity change, negative = inhibition” value is “inactive”.
On the same count and under the same terms, the value for `CCCCn1c(N)c(N(Cc2ccccc2OC)C(=O)c2sccc2C)c(=O)[nH]c1=O` was “inactive”; that for `Cc1ccc(C(=O)NCC(=O)NCC(c2ccco2)N2CCCCC2)cc1C` (stereo not given) was “inactive”.
With `Cc1ccc(S(=O)(=O)Nc2ccc(O)c3cccnc23)cc1`, the “activity change, negative = inhibition” value is “inactive”.
The same measure, in the same setting: under `CCc1cccc(NC(=O)C2CCCN(c3ncnc4c3nc3n4CCCCC3)C2)c1` (stereo not given) stands “inactive”; under `Cc1ccc2nc(N(CCCN(C)C)C(=O)c3sc4ccccc4c3Cl)sc2c1`, “inactive”; under `CC(/C=C1\SC(=S)N(C(C(=O)O)c2ccccc2)C1=O)=C\c1ccccc1` (stereo not given), “inactive”.
Regarding `Cc1ccc2sc(NNC(=O)C3=COCCO3)nc2c1C`, the “activity change, negative = inhibition” value was “inactive”.
Same read-out and setting: the value for `CC1CCC2(CC1)NC(=S)N(c1ccccc1)N2` (stereo not given) was “inactive”; that for `CC(C)CCNC(=O)C1CCN(S(=O)(=O)c2ccc3c(c2)CC(C)N3C(=O)C2CCC2)CC1` (stereo not given) was “inactive”.
The same measure, in the same setting: the value for `CN(C)c1ccc(/C=C/c2cc[n+](C)c3ccccc23)cc1` was “inactive”.
Still for that read-out and setting: under `CC(=O)Nc1ccc(OCC(=O)NCc2ccccc2)cc1` stands “inactive”; under `Cc1ccccc1C(=O)NCCNC(=O)c1ccco1`, “inactive”.
As to `COc1ccc2nc(NC(=O)CN3C(=O)NC4(CCCCC4)C3=O)sc2c1`, the “activity change, negative = inhibition” value is “inactive”.
On the same count and under the same terms, the value for `CCc1nnc(NC(=O)CSc2nnc(C3CCCCC3)n2-c2cccc(Cl)c2)s1` was “inactive”; that for `Cc1ccc(NC(=S)Nc2ccc(F)cc2)cc1C` was “inactive”; that for `O=C(Nc1ccccc1Cl)c1cc(S(=O)(=O)N2CCCCC2)ccc1N1CCOCC1` was “inactive”.
In the case of `O=C(Nc1ccc(F)cc1F)N1CCCC(c2nc(-c3ccc(F)cc3)no2)C1` (stereo not given), the “activity change, negative = inhibition” value is “inactive”.
The same measure, in the same setting: the value for `Clc1ccc(COC(Cn2ccnc2)c2ccc(Cl)cc2Cl)c(Cl)c1` (stereo not given) was “inactive”; that for `CCC(C)NC(=O)C1CCN(S(=O)(=O)c2cc([N+](=O)[O-])ccc2Cl)CC1` (stereo not given) was “inactive”; that for `COc1cccc(/C=C2/Sc3ccc(C(=O)NCCCN4CCCC4)cc3NC2=O)c1` was “inactive”.
The same measure, in the same setting: the value for `COCc1ccc(CN2CCC(n3nccc3NC(=O)C(OC)c3ccccc3)CC2)o1` (stereo not given) was “inactive”.
Still for that read-out and setting: under `O=C(O)COc1ccccc1O` stands “inactive”; under `N=c1n(CCN2CCCCC2)c2ccccc2n1CC(O)c1ccc(Cl)c(Cl)c1` (stereo not given), “inactive”; under `Cc1ccc(C#N)c(SCc2nnc(-c3ccc(Cl)cc3)o2)n1`, “inactive”.
As for `O=C1Cc2ccccc2Sc2c(OCCN3CCCCC3)cccc21`, the “activity change, negative = inhibition” value is “inactive”.
The same measure, in the same setting: the value for `O=C(C1CCCO1)N1CCN(C(=S)Nc2ccc(Cl)cc2Cl)CC1` (stereo not given) was “inactive”; that for `COc1ccc(NC(=O)c2nc3ccccc3s2)cc1` was “inactive”.
Same read-out and setting: the value for `Cc1ccc(CN(C(=O)c2ccccc2C)C2CCS(=O)(=O)C2)o1` (stereo not given) was “inactive”; that for `O=C(Nc1ccc2oc(-c3ccncc3)nc2c1)c1ccc2c(c1)OCCO2` was “inactive”.
Same read-out and setting: under `Cc1[nH]n(-c2ccccc2)c(=O)c1C=NC1CCCCC1` stands “inactive”.
`COc1ccccc1NC1=C(Cl)C(=O)N(C2CCCCC2)C1=O`: the “activity change, negative = inhibition” value was “inactive”.
Same read-out and setting: under `Cc1nonc1OCCn1c([N+](=O)[O-])cnc1C` stands “inactive”; under `O=C(NCCCN1CCN(c2ccccc2F)CC1)C1CCC(=O)N1C1CCCCC1` (stereo not given), “inactive”; under `Cc1cccc(-n2c(O)c(/C=N/NC(=O)c3ccccc3Cl)c3ccccc3c2=O)n1`, “inactive”.
Take `O=C(NCc1ccncc1)C(=O)NCC(c1ccco1)N1CCN(c2ccc(F)cc2)CC1` (stereo not given): the “activity change, negative = inhibition” value is “inactive”.
Still for that read-out and setting: under `CCCCCCCCCn1c2c(c(=N)c3c1CCC3)CCC2` stands “inactive”; under `O=C(Nc1ccc(O)c(-c2nc3ccccc3s2)c1)c1cc(=O)c2ccccc2o1`, “inactive”; under `Cc1cccc2sc(N(CCCN(C)C)C(=O)CCc3ccccc3)nc12`, “inactive”.
The same measure, in the same setting: under `C#CCOCCOCCOCCNc1nc(N2CCN(C(=O)[C@H](CCCN=C(N)N)n3cc(C(N)[C@@H](C)CC)nn3)CC2)nc(N2CCN(C(=O)[C@H](CCCCN)n3cc([C@@H](N)[C@H](C)CC)nn3)CC2)n1` (stereo not given in full) stands “inactive”.
On to `Fc1ccc(C2CC(c3ccco3)=Nc3ccccc3S2)cc1` (stereo not given), for which the “activity change, negative = inhibition” value was “inactive”.
The same measure, in the same setting: the value for `CCN(CC)CCOc1ccc2c(c1)C(=NNC(=O)c1ccccn1)c1cc(OCCN(CC)CC)ccc1-2` was “inactive”; that for `CCOc1cc(S(=O)(=O)N2CCC(Cc3ccccc3)CC2)c(OCC)cc1-n1cnnn1` was “inactive”.
As to `CC1CCN(c2nc(CN3CCCCC3)nc3scc(-c4ccccc4)c23)CC1`, the “activity change, negative = inhibition” value is “inactive”.
As to `COc1ccc(/C=C2/SC(=O)N(NS(=O)(=O)c3ccccc3)C2=S)cc1OC`, the “activity change, negative = inhibition” value is “inactive”.
On the same count and under the same terms, the value for `O=C(O)CSCC(=O)Nc1cc(C(F)(F)F)ccc1Cl` was “inactive”.
The same measure, in the same setting: under `CCCCOc1ccc(C2C(C(=O)c3ccc(C)o3)=C(O)C(=O)N2Cc2ccco2)cc1` (stereo not given) stands “inactive”.
